Experimental data as given in ChEMBL document CHEMBL4145553, “Design, synthesis, and biological evaluation of novel amide and hydrazide based thioether analogs targeting Histone deacteylase (HDAC) enzymes” (Eur J Med Chem, 2018).
Activity calls are given as the source filed them. The rule behind the calls is not given here.

How the values were obtained:
OVCAR-4 = assay: Growth inhibition of human OVCAR4 cells assessed as cell growth at 10^-7 M incubated for 48 hrs by sulforhodamine B assay relative to control; assay type: functional; conditions: OVCAR-4, 48 h, read-out: Activity
HOP-62 = assay: Growth inhibition of human HOP62 cells assessed as cell growth at 10^-6 M incubated for 48 hrs by sulforhodamine B assay relative to control; assay type: functional; conditions: HOP-62, 48 h, read-out: Activity
HCT-15 = assay: Growth inhibition of human HCT15 cells assessed as cell growth at 10^-6 M incubated for 48 hrs by sulforhodamine B assay relative to control; assay type: functional; conditions: HCT-15, 48 h, read-out: Activity
786-0 = assay: Growth inhibition of human 786-0 cells assessed as cell growth at 10^-5 M incubated for 48 hrs by sulforhodamine B assay relative to control; assay type: functional; conditions: 786-0, 48 h, read-out: Activity
CCRF-CEM = assay: Growth inhibition of human CCRF-CEM cells assessed as cell growth at 10^-6 M incubated for 48 hrs by sulforhodamine B assay relative to control; assay type: functional; conditions: read-out: Activity
MDA-MB-231 [1] = assay: Growth inhibition of human MDA-MB-231 cells assessed as cell growth at 10^-6 M incubated for 48 hrs by sulforhodamine B assay relative to control; assay type: functional; conditions: MDA-MB-231, 48 h, read-out: Activity
SNB-75 = assay: Growth inhibition of human SNB75 cells assessed as cell growth at 10^-5 M incubated for 48 hrs by sulforhodamine B assay relative to control; assay type: functional; conditions: SNB-75, 48 h, read-out: Activity
MDA-MB-231 [2] = assay: Growth inhibition of human MDA-MB-231 cells assessed as cell growth at 10^-7 M incubated for 48 hrs by sulforhodamine B assay relative to control; assay type: functional; conditions: MDA-MB-231, 48 h, read-out: Activity
MOLT-4 [3] = assay: Growth inhibition of human MOLT4 cells incubated for 48 hrs by sulforhodamine B assay; assay type: functional; conditions: MOLT-4, 48 h
MDA-MB-468 = assay: Growth inhibition of human MDA-MB-468 cells assessed as cell growth at 10^-7 M incubated for 48 hrs by sulforhodamine B assay relative to control; assay type: functional; conditions: MDA-MB-468, 48 h, read-out: Activity
MOLT-4 [4] = assay: Growth inhibition of human MOLT4 cells assessed as cell growth at 10^-8 M incubated for 48 hrs by sulforhodamine B assay relative to control; assay type: functional; conditions: MOLT-4, 48 h, read-out: Activity
SK-OV-3 [5] = assay: Growth inhibition of human SKOV3 cells assessed as cell growth at 10^-7 M incubated for 48 hrs by sulforhodamine B assay relative to control; assay type: functional; conditions: SK-OV-3, 48 h, read-out: Activity
MDA-MB-435 [6] = assay: Downregulation of HDAC8 mRNA expression in human MDA-MB-435 cells by qRT-PCR method; assay type: functional, cell-based
NCI-H23 = assay: Growth inhibition of human NCI-H23 cells assessed as cell growth at 10^-6 M incubated for 48 hrs by sulforhodamine B assay relative to control; assay type: functional; conditions: NCI-H23, 48 h, read-out: Activity
UACC-257 = assay: Growth inhibition of human UACC257 cells incubated for 48 hrs by sulforhodamine B assay; assay type: functional; conditions: UACC-257, 48 h
HCT-116 = assay: Growth inhibition of human HCT116 cells assessed as cell growth at 10^-4 M incubated for 48 hrs by sulforhodamine B assay relative to control; assay type: functional; conditions: HCT-116, 48 h, read-out: Activity
SN12C = assay: Growth inhibition of human SN12C cells assessed as cell growth at 10^-5 M incubated for 48 hrs by sulforhodamine B assay relative to control; assay type: functional; conditions: read-out: Activity
SK-OV-3 [7] = assay: Growth inhibition of human SKOV3 cells incubated for 48 hrs by sulforhodamine B assay; assay type: functional; conditions: SK-OV-3, 48 h
Malme-3M = assay: Growth inhibition of human MALME-3M cells incubated for 48 hrs by sulforhodamine B assay; assay type: functional
MDA-MB-435 [8] = assay: Induction of apoptosis in human MDA-MB-435 cells assessed as necrotic cells by propidium iodide/Annexin V staining based flow cytometry (reference value: 0.24%); assay type: functional
OVCAR-5 = assay: Growth inhibition of human OVCAR5 cells assessed as cell growth at 10^-8 M incubated for 48 hrs by sulforhodamine B assay relative to control; assay type: functional; conditions: OVCAR-5, 48 h, read-out: Activity
Histone deacetylase 1 = Histone deacetylase 1 (Homo sapiens, UniProt Q13547); assay: Inhibition of human HDAC1 by ELISA
A498 = assay: Growth inhibition of human A498 cells assessed as cell growth at 10^-4 M incubated for 48 hrs by sulforhodamine B assay relative to control; assay type: functional; conditions: A498, 48 h, read-out: Activity
UACC-62 = assay: Growth inhibition of human UACC62 cells assessed as cell growth at 10^-4 M incubated for 48 hrs by sulforhodamine B assay relative to control; assay type: functional; conditions: UACC-62, 48 h, read-out: Activity
U-251 = assay: Growth inhibition of human U251 cells assessed as cell growth at 10^-4 M incubated for 48 hrs by sulforhodamine B assay relative to control; assay type: functional; conditions: U-251, 48 h, read-out: Activity
SK-MEL-5 = assay: Growth inhibition of human SK-MEL-5 cells assessed as cell growth at 10^-5 M incubated for 48 hrs by sulforhodamine B assay relative to control; assay type: functional; conditions: SK-MEL-5, 48 h, read-out: Activity
SF-268 [9] = assay: Growth inhibition of human SF268 cells assessed as cell growth at 10^-8 M incubated for 48 hrs by sulforhodamine B assay relative to control; assay type: functional; conditions: SF-268, 48 h, read-out: Activity
SF-268 [10] = assay: Growth inhibition of human SF268 cells assessed as cell growth at 10^-7 M incubated for 48 hrs by sulforhodamine B assay relative to control; assay type: functional; conditions: SF-268, 48 h, read-out: Activity
SR = assay: Growth inhibition of human SR cells incubated for 48 hrs by sulforhodamine B assay; assay type: functional
M14 = assay: Growth inhibition of human M14 cells assessed as cell growth at 10^-8 M incubated for 48 hrs by sulforhodamine B assay relative to control; assay type: functional; conditions: M14, 48 h, read-out: Activity
TK-10 = assay: Growth inhibition of human TK10 cells assessed as cell growth at 10^-7 M incubated for 48 hrs by sulforhodamine B assay relative to control; assay type: functional; conditions: TK-10, 48 h, read-out: Activity
[11] = read-out: LC50 (the source's name)
[12] = read-out: pLC50 (the source's name) (converted)

Histone deacetylase 1, sequence (Q13547 whole entry): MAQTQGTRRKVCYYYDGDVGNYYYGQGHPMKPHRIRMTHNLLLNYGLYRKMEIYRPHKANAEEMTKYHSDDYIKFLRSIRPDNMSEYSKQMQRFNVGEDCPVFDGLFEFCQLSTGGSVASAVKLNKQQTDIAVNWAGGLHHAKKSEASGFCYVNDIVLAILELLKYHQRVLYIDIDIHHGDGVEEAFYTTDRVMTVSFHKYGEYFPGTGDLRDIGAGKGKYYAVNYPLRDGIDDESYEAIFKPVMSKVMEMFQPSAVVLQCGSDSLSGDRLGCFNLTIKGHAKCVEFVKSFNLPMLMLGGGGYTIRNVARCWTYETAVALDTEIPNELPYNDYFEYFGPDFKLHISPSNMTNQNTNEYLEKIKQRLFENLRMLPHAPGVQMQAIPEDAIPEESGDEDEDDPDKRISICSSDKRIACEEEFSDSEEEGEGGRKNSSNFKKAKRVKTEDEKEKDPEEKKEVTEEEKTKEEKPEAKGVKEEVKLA

CCS/C(Nc1ccccc1)=C(\C#N)C(=O)Nc1ccc(OC)cc1
growth at 0.1 µM (OVCAR-4): 88% | growth at 1 µM (HOP-62): 78% | growth at 1 µM (HCT-15): 53% | growth at 10 µM (786-0): 30% | growth at 1 µM (CCRF-CEM): 64% | growth at 1 µM (MDA-MB-231 [1]): 93% | growth at 10 µM (SNB-75): -13% | growth at 0.1 µM (MDA-MB-231 [2]): 94% | GI50 (MOLT-4 [3]; read-out: GI50): 2.61 µM | CC50 (MOLT-4 [3]; [11]): > 100 µM | TGI (MOLT-4 [3]; read-out: TGI): > 100 µM | GI50 (MOLT-4 [3]; read-out: pGI50 (converted)): 2.63 µM | CC50 (MOLT-4 [3]; [12]): > 100 µM | TGI (MOLT-4 [3]; read-out: pTGI): > 100 µM | growth at 0.1 µM (MDA-MB-468): 86% | growth at 0.01 µM (MOLT-4 [4]): 97% | growth at 0.1 µM (SK-OV-3 [5]): 88% | Activity (MDA-MB-435 [6]): Active | growth at 1 µM (NCI-H23): 85% | GI50 (UACC-257; read-out: GI50): 21.2 µM | CC50 (UACC-257; [11]): > 100 µM | TGI (UACC-257; read-out: TGI): > 100 µM | GI50 (UACC-257; read-out: pGI50 (converted)): 21.4 µM | CC50 (UACC-257; [12]): > 100 µM | TGI (UACC-257; read-out: pTGI): > 100 µM | growth at 100 µM (HCT-116): -11% | growth at 10 µM (SN12C): 37% | GI50 (SK-OV-3 [7]; read-out: GI50): 3.28 µM | CC50 (SK-OV-3 [7]; [11]): > 100 µM | TGI (SK-OV-3 [7]; read-out: TGI): 50.2 µM | GI50 (SK-OV-3 [7]; read-out: pGI50 (converted)): 3.31 µM | CC50 (SK-OV-3 [7]; [12]): > 100 µM | TGI (SK-OV-3 [7]; read-out: pTGI (converted)): 50.1 µM | GI50 (Malme-3M; read-out: GI50): 47.3 µM | CC50 (Malme-3M; [11]): > 100 µM | TGI (Malme-3M; read-out: TGI): > 100 µM | GI50 (Malme-3M; read-out: pGI50 (converted)): 46.8 µM | CC50 (Malme-3M; [12]): > 100 µM | TGI (Malme-3M; read-out: pTGI): > 100 µM | Activity (MDA-MB-435 [8]): 1.63% | growth at 0.01 µM (OVCAR-5): 104% | IC50 (Histone deacetylase 1): 38 nM | growth at 100 µM (A498): -12% | growth at 100 µM (UACC-62): 6% | growth at 100 µM (U-251): 6% | growth at 10 µM (SK-MEL-5): -8% | growth at 0.01 µM (SF-268 [9]): 101% | growth at 0.1 µM (SF-268 [10]): 97% | GI50 (SR; read-out: GI50): 1540 nM | CC50 (SR; [11]): > 100 µM | TGI (SR; read-out: TGI): > 100 µM | GI50 (SR; read-out: pGI50 (converted)): 1550 nM | CC50 (SR; [12]): > 100 µM | TGI (SR; read-out: pTGI): > 100 µM | growth at 0.01 µM (M14): 102% | growth at 0.1 µM (TK-10): 95%

CCS/C(Nc1ccccc1)=C(\C#N)C(=O)N/N=C\c1ccc(Cl)cc1Cl
growth at 0.1 µM (OVCAR-4): 89% | growth at 1 µM (HOP-62): 76% | growth at 1 µM (HCT-15): 77% | growth at 10 µM (786-0): 23% | growth at 1 µM (CCRF-CEM): 82% | growth at 1 µM (MDA-MB-231 [1]): 89% | growth at 10 µM (SNB-75): -2% | growth at 0.1 µM (MDA-MB-231 [2]): 97% | GI50 (MOLT-4 [3]; read-out: GI50): 3.48 µM | CC50 (MOLT-4 [3]; [11]): > 100 µM | TGI (MOLT-4 [3]; read-out: TGI): > 100 µM | GI50 (MOLT-4 [3]; read-out: pGI50 (converted)): 3.47 µM | CC50 (MOLT-4 [3]; [12]): > 100 µM | TGI (MOLT-4 [3]; read-out: pTGI): > 100 µM | growth at 0.1 µM (MDA-MB-468): 88% | growth at 0.01 µM (MOLT-4 [4]): 95% | growth at 0.1 µM (SK-OV-3 [5]): 86% | Activity (MDA-MB-435 [6]): Active | growth at 1 µM (NCI-H23): 90% | GI50 (UACC-257; read-out: GI50): 25.7 µM | CC50 (UACC-257; [11]): > 100 µM | TGI (UACC-257; read-out: TGI): > 100 µM | GI50 (UACC-257; read-out: pGI50 (converted)): 25.7 µM | CC50 (UACC-257; [12]): > 100 µM | TGI (UACC-257; read-out: pTGI): > 100 µM | growth at 100 µM (HCT-116): 3% | growth at 10 µM (SN12C): 41% | GI50 (SK-OV-3 [7]; read-out: GI50): 3.72 µM | CC50 (SK-OV-3 [7]; [11]): > 100 µM | TGI (SK-OV-3 [7]; read-out: TGI): > 100 µM | GI50 (SK-OV-3 [7]; read-out: pGI50 (converted)): 3.72 µM | CC50 (SK-OV-3 [7]; [12]): > 100 µM | TGI (SK-OV-3 [7]; read-out: pTGI (converted)): > 100 µM | GI50 (Malme-3M; read-out: GI50): 9.3 µM | CC50 (Malme-3M; [11]): > 100 µM | TGI (Malme-3M; read-out: TGI): > 100 µM | GI50 (Malme-3M; read-out: pGI50 (converted)): 9.33 µM | CC50 (Malme-3M; [12]): > 100 µM | TGI (Malme-3M; read-out: pTGI): > 100 µM | Activity (MDA-MB-435 [8]): 0.89% | growth at 0.01 µM (OVCAR-5): 105% | IC50 (Histone deacetylase 1): 70 nM | growth at 100 µM (A498): -2% | growth at 100 µM (UACC-62): 12% | growth at 100 µM (U-251): 12% | growth at 10 µM (SK-MEL-5): -6% | growth at 0.01 µM (SF-268 [9]): 94% | growth at 0.1 µM (SF-268 [10]): 94% | GI50 (SR; read-out: GI50): 3450 nM | CC50 (SR; [11]): > 100 µM | TGI (SR; read-out: TGI): > 100 µM | GI50 (SR; read-out: pGI50 (converted)): 3470 nM | CC50 (SR; [12]): > 100 µM | TGI (SR; read-out: pTGI): > 100 µM | growth at 0.01 µM (M14): 101% | growth at 0.1 µM (TK-10): 91%
